For one assay, the system named is KASUMI-10. The assay can be described thus: selective drug sensitivity score (sDSS, relative to normal bone marrow) (sDSS (score)); higher = more potent and effective on the cell line relative to normal bone marrow cells. Particulars: 72 h.
For the molecule `C[C@@H]1CN(CC(=O)Nc2ccc3c(c2)Cc2cccc(-c4cc(=O)cc(N5CCOCC5)o4)c2S3)C[C@H](C)O1` (top concentration 25000 nM), the “selective drug sensitivity score” value is -2.18.

For the molecule `COc1ccc2[nH]cc(/C=C3\C(=O)Nc4ccc(NC(=O)CCN5CCCCC5)cc43)c2c1` (top concentration 50000 nM), the “selective drug sensitivity score” value was 1.78.

Take `Cc1nn(C)c(COc2ccc(N3CCN(S(=O)(=O)N(C)C)CC3)cc2)c1-c1cccc2c(CCCOc3cccc4ccccc34)c(C(=O)O)n(CCN3CCOCC3)c12` (top concentration 50000 nM): the “selective drug sensitivity score” value stood at 3.86.

Take `C[C@H](Nc1ncnc2[nH]cnc12)c1cc2ccc(F)cc2nc1-c1ccccn1` [AMG319] (top concentration 1000 nM): the “selective drug sensitivity score” value is -1.42.

Take `C=CCn1c(=O)c2cnc(Nc3ccc(N4CCN(C)CC4)cc3)nc2n1-c1cccc(C(C)(C)O)n1` [AZD1775] (top concentration 10000 nM): the “selective drug sensitivity score” value is 7.84.

Turning to `NC(=O)Nc1cc(-c2cccc(F)c2)sc1C(=O)N[C@H]1CCCNC1` [AZD7762] (top concentration 1000 nM), the “selective drug sensitivity score” value worked out at 12.9.

As to `Cc1cc([C@@H](C)Nc2ccccc2C(=O)O)c2nc(N3CCOCC3)cc(=O)n2c1` [AZD-6482] (top concentration 2500 nM), the “selective drug sensitivity score” value is -0.28.

With `CN(C)Cc1c(C(=O)NCCOc2ccc(C(=O)NO)cc2)oc2ccccc12` [Abexinostat] (top concentration 10000 nM), the “selective drug sensitivity score” value worked out at 6.06.

On to `S=C(NCc1ccc2c(c1)OCO2)N1CCN(c2ncnc3c2oc2ccccc23)CC1` [Amuvatinib] (top concentration 10000 nM), for which the “selective drug sensitivity score” value is -1.44.

Consider `CC(=O)OC[C@H]1O[C@@H]([S-])[C@H](OC(C)=O)[C@@H](OC(C)=O)[C@@H]1OC(C)=O.CCP(CC)CC.[Au+]` [Auranofin] (top concentration 2500 nM), for which the “selective drug sensitivity score” value was determined as 5.54.

The next assay deals with KASUMI-2. The assay is described as above. The following applies: 72 h.
Take `Cc1c(-c2ccc(N3CCc4cccc(C(=O)Nc5nc6ccccc6s5)c4C3)nc2C(=O)O)cnn1CC12CC3CC(CC(C3)C1)C2` (top concentration 1000 nM): the “selective drug sensitivity score” value turned out to be 1.04.

As for `O=C(NOC[C@H](O)CO)c1ccc(F)c(F)c1Nc1ccc(I)cc1F` (top concentration 1000 nM), the “selective drug sensitivity score” value came out at 10.1.

As for `CO[C@@H](C)Cn1c(=O)n(C)c2cnc3ccc(-c4cncc(C(C)(C)O)c4)cc3c21` (top concentration 2500 nM), the “selective drug sensitivity score” value worked out at 12.3.

On to `Cc1cccc(CC(=O)N2CCc3c2ccc(-c2cn(C)c4ncnc(N)c24)c3F)n1` (top concentration 2500 nM), for which the “selective drug sensitivity score” value is -0.68.

On to `CNC(=O)c1ccccc1Nc1nc(Nc2ccc3c(c2OC)CCC[C@H](N2CCN(CCO)CC2)C3)ncc1Cl` (top concentration 5000 nM), for which the “selective drug sensitivity score” value was -3.24.

Take `COc1cc2ncnc(Oc3cccc(NC(=O)Nc4cc(C(C)(C)C(F)(F)F)on4)c3)c2cc1OC` (top concentration 10000 nM): the “selective drug sensitivity score” value came to 5.2.

For the molecule `C[C@@H](Oc1cc(-n2cnc3ccc(CN4CCN(C)CC4)cc32)sc1C(N)=O)c1ccccc1C(F)(F)F` (top concentration 10000 nM), the “selective drug sensitivity score” value was 15.

`Nc1nccc(-c2c(-c3ccc(F)cc3)ncn2C2CCCCC2)n1` (top concentration 10000 nM): the “selective drug sensitivity score” value amounted to 12.6.

`O=C(O)c1ccc(-c2c[nH]c3ncc(-c4ccccc4)cc23)cc1C1CCCC1` (top concentration 10000 nM): the “selective drug sensitivity score” value was -1.44.

As for `C[C@@H]1CN(CC(=O)Nc2ccc3c(c2)Cc2cccc(-c4cc(=O)cc(N5CCOCC5)o4)c2S3)C[C@H](C)O1` (top concentration 25000 nM), the “selective drug sensitivity score” value was -2.08.

`COc1ccc2[nH]cc(/C=C3\C(=O)Nc4ccc(NC(=O)CCN5CCCCC5)cc43)c2c1` (top concentration 50000 nM): the “selective drug sensitivity score” value was -4.72.

Take `Cc1nn(C)c(COc2ccc(N3CCN(S(=O)(=O)N(C)C)CC3)cc2)c1-c1cccc2c(CCCOc3cccc4ccccc34)c(C(=O)O)n(CCN3CCOCC3)c12` (top concentration 50000 nM): the “selective drug sensitivity score” value was -0.74.

Regarding `C[C@H](Nc1ncnc2[nH]cnc12)c1cc2ccc(F)cc2nc1-c1ccccn1` [AMG319] (top concentration 1000 nM), the “selective drug sensitivity score” value stood at 7.58.

As to `C=CCn1c(=O)c2cnc(Nc3ccc(N4CCN(C)CC4)cc3)nc2n1-c1cccc(C(C)(C)O)n1` [AZD1775] (top concentration 10000 nM), the “selective drug sensitivity score” value worked out at 4.94.

For the molecule `NC(=O)Nc1cc(-c2cccc(F)c2)sc1C(=O)N[C@H]1CCCNC1` [AZD7762] (top concentration 1000 nM), the “selective drug sensitivity score” value is -4.2.

For the molecule `Cc1cc([C@@H](C)Nc2ccccc2C(=O)O)c2nc(N3CCOCC3)cc(=O)n2c1` [AZD-6482] (top concentration 2500 nM), the “selective drug sensitivity score” value was found to be 10.2.

For the molecule `CN(C)Cc1c(C(=O)NCCOc2ccc(C(=O)NO)cc2)oc2ccccc12` [Abexinostat] (top concentration 10000 nM), the “selective drug sensitivity score” value was 8.66.

As for `S=C(NCc1ccc2c(c1)OCO2)N1CCN(c2ncnc3c2oc2ccccc23)CC1` [Amuvatinib] (top concentration 10000 nM), the “selective drug sensitivity score” value worked out at 10.8.

Take `CC(=O)OC[C@H]1O[C@@H]([S-])[C@H](OC(C)=O)[C@@H](OC(C)=O)[C@@H]1OC(C)=O.CCP(CC)CC.[Au+]` [Auranofin] (top concentration 2500 nM): the “selective drug sensitivity score” value is 0.54.

A further assay concerns KASUMI-9. The description is as above. The following applies: 72 h.
As to `Cc1c(-c2ccc(N3CCc4cccc(C(=O)Nc5nc6ccccc6s5)c4C3)nc2C(=O)O)cnn1CC12CC3CC(CC(C3)C1)C2` (top concentration 1000 nM), the “selective drug sensitivity score” value is -2.26.

Turning to `O=C(NOC[C@H](O)CO)c1ccc(F)c(F)c1Nc1ccc(I)cc1F` (top concentration 1000 nM), the “selective drug sensitivity score” value turned out to be 4.44.

Turning to `CO[C@@H](C)Cn1c(=O)n(C)c2cnc3ccc(-c4cncc(C(C)(C)O)c4)cc3c21` (top concentration 2500 nM), the “selective drug sensitivity score” value was 8.68.

Regarding `Cc1cccc(CC(=O)N2CCc3c2ccc(-c2cn(C)c4ncnc(N)c24)c3F)n1` (top concentration 2500 nM), the “selective drug sensitivity score” value turned out to be 2.92.

Regarding `CNC(=O)c1ccccc1Nc1nc(Nc2ccc3c(c2OC)CCC[C@H](N2CCN(CCO)CC2)C3)ncc1Cl` (top concentration 5000 nM), the “selective drug sensitivity score” value is 0.26.

For the molecule `COc1cc2ncnc(Oc3cccc(NC(=O)Nc4cc(C(C)(C)C(F)(F)F)on4)c3)c2cc1OC` (top concentration 10000 nM), the “selective drug sensitivity score” value came to 7.5.

`C[C@@H](Oc1cc(-n2cnc3ccc(CN4CCN(C)CC4)cc32)sc1C(N)=O)c1ccccc1C(F)(F)F` (top concentration 10000 nM): the “selective drug sensitivity score” value is 26.

On to `Nc1nccc(-c2c(-c3ccc(F)cc3)ncn2C2CCCCC2)n1` (top concentration 10000 nM), for which the “selective drug sensitivity score” value was 1.7.

As for `O=C(O)c1ccc(-c2c[nH]c3ncc(-c4ccccc4)cc23)cc1C1CCCC1` (top concentration 10000 nM), the “selective drug sensitivity score” value worked out at 0.66.

`C[C@@H]1CN(CC(=O)Nc2ccc3c(c2)Cc2cccc(-c4cc(=O)cc(N5CCOCC5)o4)c2S3)C[C@H](C)O1` (top concentration 25000 nM): the “selective drug sensitivity score” value was 1.22.

As to `COc1ccc2[nH]cc(/C=C3\C(=O)Nc4ccc(NC(=O)CCN5CCCCC5)cc43)c2c1` (top concentration 50000 nM), the “selective drug sensitivity score” value is 1.28.

As for `Cc1nn(C)c(COc2ccc(N3CCN(S(=O)(=O)N(C)C)CC3)cc2)c1-c1cccc2c(CCCOc3cccc4ccccc34)c(C(=O)O)n(CCN3CCOCC3)c12` (top concentration 50000 nM), the “selective drug sensitivity score” value was 5.66.

In the case of `C[C@H](Nc1ncnc2[nH]cnc12)c1cc2ccc(F)cc2nc1-c1ccccn1` [AMG319] (top concentration 1000 nM), the “selective drug sensitivity score” value turned out to be 1.18.

With `C=CCn1c(=O)c2cnc(Nc3ccc(N4CCN(C)CC4)cc3)nc2n1-c1cccc(C(C)(C)O)n1` [AZD1775] (top concentration 10000 nM), the “selective drug sensitivity score” value was determined as 14.6.

Turning to `NC(=O)Nc1cc(-c2cccc(F)c2)sc1C(=O)N[C@H]1CCCNC1` [AZD7762] (top concentration 1000 nM), the “selective drug sensitivity score” value worked out at 4.1.

As to `Cc1cc([C@@H](C)Nc2ccccc2C(=O)O)c2nc(N3CCOCC3)cc(=O)n2c1` [AZD-6482] (top concentration 2500 nM), the “selective drug sensitivity score” value is 5.82.

Turning to `CN(C)Cc1c(C(=O)NCCOc2ccc(C(=O)NO)cc2)oc2ccccc12` [Abexinostat] (top concentration 10000 nM), the “selective drug sensitivity score” value amounted to 8.26.

Consider `S=C(NCc1ccc2c(c1)OCO2)N1CCN(c2ncnc3c2oc2ccccc23)CC1` [Amuvatinib] (top concentration 10000 nM), for which the “selective drug sensitivity score” value worked out at 1.26.

Take `CC(=O)OC[C@H]1O[C@@H]([S-])[C@H](OC(C)=O)[C@@H](OC(C)=O)[C@@H]1OC(C)=O.CCP(CC)CC.[Au+]` [Auranofin] (top concentration 2500 nM): the “selective drug sensitivity score” value was 3.94.

These data come from the supplement of paper PMC8967900.
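Note: ALL cell lines in 384-well plates, five doses spanning 10,000-fold, each plate scaled between vehicle and 100 µmol/L benzalkonium chloride controls, sDSS an adapted area-under-curve metric.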
